Data on eight molecules can be found in ChEMBL document CHEMBL1144141, “Four new steroids from two octocorals” (J Nat Prod, 1999).

Values after ≈ are worked out from the molar mass of the structure shown.

The test system of one experiment is Amphibalanus amphitrite. The experiment is described as follows: Lethality against Balanus amphitrite cyprid larvae.
`C=C[C@H]1CC[C@H]2[C@@H]3CCc4cc(O[C@@H]5O[C@@H](C)[C@@H](OC(C)=O)[C@@H](O)[C@@H]5O)ccc4[C@H]3CC[C@]12C`: the LD100 turned out to be 100 µg/mL. Turning to `C=C[C@H]1CC[C@H]2[C@@H]3CCc4cc(OC)ccc4[C@H]3CC[C@]12C`, the LD100 turned out to be 100 µg/mL. The same measure, in the same setting: under `COC(=O)/C=C/[C@@H](C)[C@H]1CC[C@H]2[C@@H]3CCC4=CC(=O)C=C[C@]4(C)[C@H]3CC[C@]12C` stands 100 µg/mL; under `CC(C)=CC(O)C(O)[C@@H](C)[C@H]1CC[C@H]2[C@@H]3CC[C@H]4CC(=O)C=C[C@]4(C)[C@H]3CC[C@]12C` (stereo partly drawn), 100 µg/mL.

The test system of a further experiment is Amphibalanus amphitrite. The experiment is described as follows: Antifouling activity against Balanus amphitrite assessed as inhibition of cyprid larval settlement. The experiment is classed as functional, organism-based.
Regarding `CC(=O)O[C@H]1C[C@H]2[C@@H](CCC3=CC(=O)C=C[C@@]32C)[C@]23CC[C@]([C@H](C)CCCC(C)C)(O[C@@]12C)O3` [ISOGOSTERONE A], the EC50 stood at 2.2 µg/mL (≈ 4.67 µM). Same read-out and setting: in the case of `CC(=O)OC(CCC(C)C)[C@@H](C)[C@]1(O)CC[C@@]2(O1)[C@@H]1CCC3=CC(=O)C=C[C@]3(C)[C@H]1C[C@H](OC(C)=O)[C@]2(C)O` (stereo partly drawn) [ISOGOSTERONE C] it was 2.2 µg/mL (≈ 4.02 µM); in that of `CC(=O)O[C@H]1C[C@H]2[C@@H](CCC3=CC(=O)C=C[C@@]32C)[C@]2(CC[C@@](O)([C@H](C)C(=O)CCC(C)C)O2)[C@@]1(C)O` [ISOGOSTERONE B], 2.2 µg/mL (≈ 4.38 µM); in that of `CC(=O)OC(CCC(C)C)[C@@H](C)[C@]12CC[C@@]3(O1)[C@@H]1CCC4=CC(=O)C=C[C@]4(C)[C@H]1C[C@H](OC(C)=O)[C@]3(C)O2` (stereo partly drawn) [ISOGOSTERONE D], 2.2 µg/mL (≈ 4.16 µM).
